Reference: ChEMBL document CHEMBL5614431, “Discovery of 1,3,4-oxadiazoles with slow-action activity against Plasmodium falciparum malaria parasites” (Eur J Med Chem, 2024)
pIC50: −log10 of the molar value.

System: Plasmodium falciparum
Assay: Antimalarial activity against synchronous ring stage Plasmodium falciparum 3D7 infected in human Erythrocyte assessed as inhibition of parasite growth incubated for 48 hrs by [3H]-hypoxanthine incorporation assay
Assay type: functional, organism-based
Settings: 3D7, Erythrocyte

Row | Structure (SMILES) | pIC50
1 | O=S(=O)(c1nnc(N2CCCC2)o1)C1CCCCC1 | < 4.30
2 | O=S(=O)(c1nnc(N2CC3CCC2C3)o1)C1CCCCC1 (racemic) | < 4.60
3 | O=S(=O)(c1nnc(N2CCC(F)(F)CC2)o1)C1CCCCC1 | < 4.90
4 | CC1CN(c2nnc(S(=O)(=O)C3CCCCC3)o2)CCO1 (racemic) | < 4.60
5 | CC1(C)CN(c2nnc(S(=O)(=O)C3CCCCC3)o2)CCO1 | < 4.60
6 | CC1CCN(c2nnc(S(=O)(=O)Cc3ccc(Cl)c(Cl)c3)o2)CC1 | 4.94

System: Plasmodium falciparum
Assay: Antimalarial activity against synchronous ring stage Plasmodium falciparum 3D7 infected in human Erythrocyte assessed as inhibition of parasite growth incubated for 96 hrs by [3H]-hypoxanthine incorporation assay
Assay type: functional, organism-based
Settings: 3D7, Erythrocyte

Row | Structure (SMILES) | pIC50
7 | O=S(=O)(c1nnc(N2CCCC2)o1)C1CCCCC1 | 5.45
8 | O=S(=O)(c1nnc(N2CC3CCC2C3)o1)C1CCCCC1 (racemic) | 6.25
9 | O=S(=O)(c1nnc(N2CCC(F)(F)CC2)o1)C1CCCCC1 | 6.14
10 | CC1CN(c2nnc(S(=O)(=O)C3CCCCC3)o2)CCO1 (racemic) | 6.42
11 | CC1(C)CN(c2nnc(S(=O)(=O)C3CCCCC3)o2)CCO1 | 6.62
12 | CC1CCN(c2nnc(S(=O)(=O)Cc3ccc(Cl)c(Cl)c3)o2)CC1 | 6.80

System: not listed separately
Assay: Selectivity ratio of IC50 for antimalarial activity against synchronous ring stage Plasmodium falciparum 3D7 infected in human Erythrocyte assessed as inhibition of parasite growth incubated for 48 hrs by [3H]-hypoxanthine incorporation assay to IC50 for antimalarial activity against synchronous ring stage Plasmodium falciparum 3D7 infected in human Erythrocyte assessed as inhibition of parasite growth incubated for 48 hrs by [3H]-hypoxanthine incorporation assay
Assay type: functional
Settings: not given

Row | Structure (SMILES) | Ratio IC50
13 | O=S(=O)(c1nnc(N2CCCC2)o1)C1CCCCC1 | >14
14 | O=S(=O)(c1nnc(N2CC3CCC2C3)o1)C1CCCCC1 (racemic) | >45
15 | O=S(=O)(c1nnc(N2CCC(F)(F)CC2)o1)C1CCCCC1 | >17
16 | CC1CN(c2nnc(S(=O)(=O)C3CCCCC3)o2)CCO1 (racemic) | >66
17 | CC1(C)CN(c2nnc(S(=O)(=O)C3CCCCC3)o2)CCO1 | >105
18 | CC1CCN(c2nnc(S(=O)(=O)Cc3ccc(Cl)c(Cl)c3)o2)CC1 | 72

System: not listed separately
Assay: Cytotoxicity against human NFF cells assessed as reduction in cell viability incubated for 72 hrs by SRB assay
Assay type: toxicity, cell-based
Settings: not given

Row | Structure (SMILES) | IC50 at 72 h
19 | O=S(=O)(c1nnc(N2CCCC2)o1)C1CCCCC1 | > 100 µM
20 | O=S(=O)(c1nnc(N2CC3CCC2C3)o1)C1CCCCC1 (racemic) | > 100 µM
21 | O=S(=O)(c1nnc(N2CCC(F)(F)CC2)o1)C1CCCCC1 | > 100 µM
22 | CC1CN(c2nnc(S(=O)(=O)C3CCCCC3)o2)CCO1 (racemic) | > 100 µM
23 | CC1(C)CN(c2nnc(S(=O)(=O)C3CCCCC3)o2)CCO1 | > 100 µM
24 | CC1CCN(c2nnc(S(=O)(=O)Cc3ccc(Cl)c(Cl)c3)o2)CC1 | 26 µM

System: not listed separately
Assay: Selectivity index, ratio of IC50 for cytotoxicity against human NFF cells to IC50 for antimalarial activity against synchronous ring stage Plasmodium falciparum 3D7 infected in human Erythrocyte assessed as inhibition of parasite growth incubated for 96 hrs
Assay type: toxicity, cell-based
Settings: read-out: Ratio IC50

Row | Structure (SMILES) | selectivity ratio at 96 h
25 | O=S(=O)(c1nnc(N2CCCC2)o1)C1CCCCC1 | > 28
26 | O=S(=O)(c1nnc(N2CC3CCC2C3)o1)C1CCCCC1 (racemic) | > 179
27 | O=S(=O)(c1nnc(N2CCC(F)(F)CC2)o1)C1CCCCC1 | > 127
28 | CC1CN(c2nnc(S(=O)(=O)C3CCCCC3)o2)CCO1 (racemic) | > 263
29 | CC1(C)CN(c2nnc(S(=O)(=O)C3CCCCC3)o2)CCO1 | > 417
30 | CC1CCN(c2nnc(S(=O)(=O)Cc3ccc(Cl)c(Cl)c3)o2)CC1 | 162

System: Plasmodium falciparum
Assay: Antimalarial activity against multidrug-resistant synchronous ring stage Plasmodium falciparum Dd2 infected in human Erythrocyte assessed as inhibition of parasite growth incubated for 48 hrs by [3H]-hypoxanthine incorporation assay
Assay type: functional, organism-based
Settings: not given

Row | Structure (SMILES) | pIC50
31 | CC1CCN(c2nnc(S(=O)(=O)Cc3ccc(Cl)c(Cl)c3)o2)CC1 | 4.99

System: Plasmodium falciparum
Assay: Antimalarial activity against multidrug-resistant synchronous ring stage Plasmodium falciparum Dd2 infected in human Erythrocyte assessed as inhibition of parasite growth incubated for 96 hrs by [3H]-hypoxanthine incorporation assay
Assay type: functional, organism-based
Settings: not given

Row | Structure (SMILES) | pIC50
32 | CC1CCN(c2nnc(S(=O)(=O)Cc3ccc(Cl)c(Cl)c3)o2)CC1 | 7.15

System: not listed separately
Assay: Selectivity ratio of IC50 for antimalarial activity against multidrug-resistant synchronous ring stage Plasmodium falciparum Dd2 infected in human Erythrocyte assessed as inhibition of parasite growth incubated for 48 hrs by [3H]-hypoxanthine incorporation assay to IC50 for antimalarial activity against multidrug-resistant synchronous ring stage Plasmodium falciparum Dd2 infected in human …
Assay type: functional
Settings: not given

Row | Structure (SMILES) | Ratio IC50
33 | CC1CCN(c2nnc(S(=O)(=O)Cc3ccc(Cl)c(Cl)c3)o2)CC1 | 145

System: Plasmodium falciparum
Assay: Resistance index, ratio of IC50 for antimalarial activity against multidrug-resistant synchronous ring stage Plasmodium falciparum Dd2 infected in human Erythrocyte assessed as inhibition of parasite growth incubated for 96 hrs by [3H]-hypoxanthine incorporation assay to IC50 for antimalarial activity against synchronous ring stage Plasmodium falciparum 3D7 infected in human Erythrocyte assessed …
Assay type: toxicity, organism-based
Settings: not given

Row | Structure (SMILES) | Ratio IC50
34 | CC1CCN(c2nnc(S(=O)(=O)Cc3ccc(Cl)c(Cl)c3)o2)CC1 | 0.4

System: Plasmodium falciparum
Assay: Antimalarial activity against synchronous ring stage Plasmodium falciparum 3D7 infected in human Erythrocyte assessed as inhibition of parasite growth incubated for 96 hrs supplemented with IPP by [3H]-hypoxanthine incorporation assay
Assay type: functional, organism-based
Settings: 3D7, Erythrocyte

Row | Structure (SMILES) | pIC50
35 | CC1CCN(c2nnc(S(=O)(=O)Cc3ccc(Cl)c(Cl)c3)o2)CC1 | 6.70

System: not listed separately
Assay: Selectivity ratio of IC50 for antimalarial activity against synchronous ring stage Plasmodium falciparum 3D7 infected in human Erythrocyte assessed as inhibition of parasite growth incubated for 96 hrs supplemented with IPP by [3H]-hypoxanthine incorporation assay to IC50 for antimalarial activity against synchronous ring stage Plasmodium falciparum 3D7 infected in human Erythrocyte assessed as …
Assay type: functional
Settings: not given

Row | Structure (SMILES) | Ratio IC50
36 | CC1CCN(c2nnc(S(=O)(=O)Cc3ccc(Cl)c(Cl)c3)o2)CC1 | 1

System: not listed separately
Assay: Metabolic stability in human liver microsomes assessed as half life
Assay type: ADME, Microsome
Settings: not given

Row | Structure (SMILES) | half-life
37 | CC1CCN(c2nnc(S(=O)(=O)Cc3ccc(Cl)c(Cl)c3)o2)CC1 | 3 min

System: not listed separately
Assay: Metabolic stability in mouse liver microsomes assessed as half life
Assay type: ADME, Microsome
Settings: not given

Row | Structure (SMILES) | half-life
38 | CC1CCN(c2nnc(S(=O)(=O)Cc3ccc(Cl)c(Cl)c3)o2)CC1 | < 2 min
